Bridge positions count the residues as written; N and C are the ends. Peptide text beside a SMILES is read from it. * marks the point of attachment. Cypate = CC1(C)C(/C=C/C=C/C=C/C=C2/N(CCC(=O)*)c3ccc4ccccc4c3C2(C)C)=[N+](CCC(=O)O)c2ccc3ccccc3c21
Experiments:
[1] = tested on: A549; test: Drug uptake in human A549 cells overexpressing […] integrin at 1 uM after 4 to 24 hrs by fluorescence microscopy; format: ADME, cell-based; settings: a549, 1 µM
[2] = molecular target: Integrin alpha-V/beta-3 (Homo sapiens, UniProt P05106+P06756); test: Displacement of [125I]echistatin from human integrin […] expressed in human A549 cells by binding assay; format: cell-based
Sequence of Integrin alpha-V/beta-3 (P05106 27-788 limits assumed): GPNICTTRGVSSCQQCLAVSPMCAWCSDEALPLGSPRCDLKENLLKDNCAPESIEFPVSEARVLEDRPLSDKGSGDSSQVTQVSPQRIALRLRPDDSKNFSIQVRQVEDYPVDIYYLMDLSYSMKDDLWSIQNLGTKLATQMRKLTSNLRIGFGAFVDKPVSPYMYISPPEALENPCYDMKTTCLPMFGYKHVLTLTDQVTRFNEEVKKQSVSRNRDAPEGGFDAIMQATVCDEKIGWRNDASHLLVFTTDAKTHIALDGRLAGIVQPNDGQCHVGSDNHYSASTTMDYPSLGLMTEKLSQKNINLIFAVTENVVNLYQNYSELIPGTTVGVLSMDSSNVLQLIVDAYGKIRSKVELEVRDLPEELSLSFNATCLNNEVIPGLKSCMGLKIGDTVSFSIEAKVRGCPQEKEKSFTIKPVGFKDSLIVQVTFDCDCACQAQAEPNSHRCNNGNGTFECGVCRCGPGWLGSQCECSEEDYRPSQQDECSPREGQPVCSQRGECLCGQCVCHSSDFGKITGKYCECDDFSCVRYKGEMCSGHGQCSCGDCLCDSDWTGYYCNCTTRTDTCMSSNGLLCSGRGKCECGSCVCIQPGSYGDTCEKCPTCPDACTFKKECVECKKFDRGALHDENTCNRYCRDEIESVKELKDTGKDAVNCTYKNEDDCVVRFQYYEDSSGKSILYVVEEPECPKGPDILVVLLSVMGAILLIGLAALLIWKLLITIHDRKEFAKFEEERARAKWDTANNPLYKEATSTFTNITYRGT
Sequence of Integrin alpha-V/beta-3 (P06756 31-889 limits assumed): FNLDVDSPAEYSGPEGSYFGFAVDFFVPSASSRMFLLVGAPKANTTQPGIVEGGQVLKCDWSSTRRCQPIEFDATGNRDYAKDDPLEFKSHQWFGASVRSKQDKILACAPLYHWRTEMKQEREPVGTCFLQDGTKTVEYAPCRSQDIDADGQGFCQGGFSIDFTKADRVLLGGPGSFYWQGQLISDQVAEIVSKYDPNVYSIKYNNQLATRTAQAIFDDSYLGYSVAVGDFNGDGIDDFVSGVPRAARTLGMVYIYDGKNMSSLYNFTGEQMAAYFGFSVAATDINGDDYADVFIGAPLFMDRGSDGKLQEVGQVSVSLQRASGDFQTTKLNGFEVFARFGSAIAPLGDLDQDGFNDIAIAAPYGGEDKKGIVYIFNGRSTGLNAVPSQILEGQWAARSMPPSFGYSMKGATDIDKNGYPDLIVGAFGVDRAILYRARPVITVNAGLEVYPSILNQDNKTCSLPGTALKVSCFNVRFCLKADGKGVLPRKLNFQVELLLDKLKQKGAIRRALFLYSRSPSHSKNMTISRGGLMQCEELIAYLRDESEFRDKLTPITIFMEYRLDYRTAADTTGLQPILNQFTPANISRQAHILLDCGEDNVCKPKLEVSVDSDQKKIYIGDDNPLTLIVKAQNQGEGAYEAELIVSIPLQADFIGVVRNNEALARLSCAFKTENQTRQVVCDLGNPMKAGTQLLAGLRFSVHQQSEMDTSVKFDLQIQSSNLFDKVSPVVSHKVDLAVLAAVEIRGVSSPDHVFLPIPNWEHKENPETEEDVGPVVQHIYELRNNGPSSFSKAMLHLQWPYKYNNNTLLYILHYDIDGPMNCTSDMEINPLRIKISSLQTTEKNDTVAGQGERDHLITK
Sequence of Integrin alpha-V/beta-3 (P06756 891-1048 limits assumed): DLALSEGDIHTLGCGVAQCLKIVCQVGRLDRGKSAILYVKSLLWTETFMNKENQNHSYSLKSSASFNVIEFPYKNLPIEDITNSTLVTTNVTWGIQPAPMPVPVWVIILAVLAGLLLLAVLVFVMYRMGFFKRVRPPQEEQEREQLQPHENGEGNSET

Row | SMILES | Drug uptake [1] | IC50 [2] [µM]
1 | CC1(C)C(/C=C/C=C/C=C/C=C2/N(CCC(=O)N[C@H]3CSSC[C@@H](C(N)=O)NC(=O)[C@H](CC(=O)O)NC(=O)CNC(=O)[C@H](CCCNC(=N)N)NC3=O)c3ccc4ccccc4c3C2(C)C)=[N+](CCC(=O)O)c2ccc3ccccc3c21 | Active | –
2 | CC1(C)C(/C=C/C=C/C=C/C=C2/N(CCC(=O)NCCCC[C@@H]3NC(=O)[C@@H](Cc4ccccc4)NC(=O)[C@H](CC(=O)O)NC(=O)CNC(=O)[C@H](CCCNC(=N)N)NC3=O)c3ccc4ccccc4c3C2(C)C)=[N+](CCC(=O)O)c2ccc3ccccc3c21 | Active | 0.72
3 | CC1(C)C(/C=C/C=C/C=C/C=C2/N(CCC(=O)N[C@H]3CSSC[C@@H](C(N)=O)NC(=O)[C@H](CC(=O)O)NC(=O)[C@@H]4CCCN4C(=O)[C@H](CCCNC(=N)N)NC3=O)c3ccc4ccccc4c3C2(C)C)=[N+](CCC(=O)O)c2ccc3ccccc3c21 (Cypate-CRPDC-NH2; disulfide 1-5) | – | > 10

Further lines, results first:

Row | Drug uptake [1] | IC50 [2] [µM] | SMILES
4 | – | > 10 | CC(C)[C@@H]1NC(=O)[C@H](CCCNC(=N)N)NC(=O)[C@@H](NC(=O)CCN2/C(=C/C=C/C=C/C=C/C3=[N+](CCC(=O)O)c4ccc5ccccc5c4C3(C)C)C(C)(C)c3c2ccc2ccccc32)CSSC[C@@H](C(N)=O)NC(=O)[C@H](CC(=O)O)NC1=O (Cypate-CRVDC-NH2; disulfide 1-5)
5 | – | > 10 | CC1(C)C(/C=C/C=C/C=C/C=C2/N(CCC(=O)N[C@H]3CSSC[C@@H](C(N)=O)NC(=O)[C@H](CC(=O)O)NC(=O)[C@H](Cc4ccc(O)cc4)NC(=O)[C@H](CCCNC(=N)N)NC3=O)c3ccc4ccccc4c3C2(C)C)=[N+](CCC(=O)O)c2ccc3ccccc3c21 (Cypate-CRYDC-NH2; disulfide 1-5)
